Source: ChEMBL document CHEMBL1201862, “PubChem BioAssay data set” (2004)
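A five-concentration, 48-hour dose response in 96-well plates underlies each endpoint, interpolated linearly between surrounding concentrations. The concentration for 50% growth inhibition is given as GI50.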 Calls of active or inactive are those of the source. Cut-off read from the data, not from the text of the source: active = GI50 up to about 1.1 µM and inactive = higher.

Columns and labels:
Assay in all cases: NCI anticancer screen, dose series, 48 h
[1] = test system: U-251
[2] = test system: LOX IMVI
[3] = test system: HCT-15
[4] = test system: OVCAR-8
[5] = test system: SK-MEL-5
[6] = test system: SF-295
[7] = test system: 786-0
[8] = test system: MDA-N
[9] = test system: Malme-3M
[10] = test system: ACHN
[11] = test system: K562
[12] = test system: NCI-H226
[13] = test system: A549
[14] = test system: CCRF-CEM
[15] = test system: OVCAR-5
[16] = test system: UO-31
[17] = test system: KM12
[18] = test system: UACC-62
[19] = test system: COLO 205
[20] = test system: RXF 393

Structure (SMILES)	GI50 [1]	GI50 [2]	GI50 [3] [µM]	GI50 [4]	GI50 [5]	GI50 [6]	GI50 [7]	GI50 [8]	GI50 [9]	GI50 [10]	GI50 [11]	GI50 [12]	GI50 [13]	GI50 [14]	GI50 [15]	GI50 [16]	GI50 [17]	GI50 [18]	GI50 [19]	GI50 [20]
CC(=O)N1C(C(=O)NC2CCCCC2)CSC1c1ccccc1 (configuration not stated)	> 100 µM (inactive)	> 100 µM (inactive)	> 100	> 100 µM (inactive)	> 100 µM (inactive)	> 100 µM (inactive)	> 100 µM (inactive)	> 100 µM (inactive)	> 100 µM (inactive)	> 100 µM (inactive)	> 100 µM (inactive)	51.6 µM (inactive)	> 100 µM (inactive)	> 100 µM (inactive)	> 100 µM (inactive)	> 100 µM (inactive)	> 100 µM (inactive)	> 100 µM (inactive)		
COc1cc(OC)cc(-n2c(N)c(C#N)c3ccc([N+](=O)[O-])cc3c2=O)c1	22.9 µM (inactive)	> 100 µM (inactive)	> 100	18.7 µM (inactive)	30.3 µM (inactive)		19 µM (inactive)	80 µM (inactive)		28.3 µM (inactive)	22.6 µM (inactive)	23.9 µM (inactive)	43.4 µM (inactive)			19.5 µM (inactive)	> 100 µM (inactive)	27.3 µM (inactive)	> 100 µM (inactive)	
CC(C)(C)[C@H]1CC[C@@](O)(c2ccccc2)CC1.CC(C)(C)[C@H]1CC[C@](O)(c2ccccc2)CC1	16.3 µM (inactive)	15.3 µM (inactive)	23.9	18.7 µM (inactive)	14.8 µM (inactive)	36.4 µM (inactive)	18 µM (inactive)		29.9 µM (inactive)	20 µM (inactive)	15.2 µM (inactive)	11.6 µM (inactive)	26 µM (inactive)	26.5 µM (inactive)	44.7 µM (inactive)	31.5 µM (inactive)	22.8 µM (inactive)	19.1 µM (inactive)	17.7 µM (inactive)	18.6 µM (inactive)
CON(C(=O)OC(C)(C)C)c1ccccc1	> 100 µM (inactive)	> 100 µM (inactive)	> 100	> 100 µM (inactive)	> 100 µM (inactive)	> 100 µM (inactive)	> 100 µM (inactive)		> 100 µM (inactive)	> 100 µM (inactive)	> 100 µM (inactive)	> 100 µM (inactive)	> 100 µM (inactive)	> 100 µM (inactive)	> 100 µM (inactive)	> 100 µM (inactive)	> 100 µM (inactive)	> 100 µM (inactive)	> 100 µM (inactive)	> 100 µM (inactive)
Cc1c(C(=O)CC(=O)C(=O)Nc2c(C(C)C)cccc2C(C)C)[n+]([O-])c2ccccc2[n+]1[O-]	3.09 µM (inactive)	3.4 µM (inactive)	2.79	2.57 µM (inactive)	10.4 µM (inactive)	14.8 µM (inactive)	5.21 µM (inactive)		7.19 µM (inactive)	2.52 µM (inactive)	6.12 µM (inactive)	22.6 µM (inactive)	15.7 µM (inactive)	2.34 µM (inactive)	21.3 µM (inactive)	16.6 µM (inactive)	3.47 µM (inactive)	9.98 µM (inactive)	3.76 µM (inactive)	13.5 µM (inactive)
NC(=O)OCC(COc1ccc(Cl)cc1)OC(=O)c1ccccc1Cl (configuration not stated)	14.1 µM (inactive)	13.8 µM (inactive)	16.4	23.4 µM (inactive)	19.1 µM (inactive)	25.4 µM (inactive)	19.4 µM (inactive)		20.3 µM (inactive)	31.6 µM (inactive)	20.7 µM (inactive)	25.1 µM (inactive)	27.8 µM (inactive)	22.3 µM (inactive)	20.6 µM (inactive)	22.3 µM (inactive)	21.6 µM (inactive)	17.2 µM (inactive)	17.5 µM (inactive)	12.6 µM (inactive)
CC(C)(C)C1CCN(C(=O)c2ccccc2)CC1	> 100 µM (inactive)	> 100 µM (inactive)	57.5	> 100 µM (inactive)	28.8 µM (inactive)	> 100 µM (inactive)	> 100 µM (inactive)		43.6 µM (inactive)	> 100 µM (inactive)	63.4 µM (inactive)	> 100 µM (inactive)	90.6 µM (inactive)	> 100 µM (inactive)	> 100 µM (inactive)	> 100 µM (inactive)	> 100 µM (inactive)	> 100 µM (inactive)	> 100 µM (inactive)	76 µM (inactive)
[O-][S+]1Nc2c(Cl)cc(Cl)c(Cl)c2S1 (configuration not stated)	38.6 µM (inactive)	78.9 µM (inactive)	44.1	> 100 µM (inactive)	70.6 µM (inactive)	> 100 µM (inactive)	> 100 µM (inactive)		> 100 µM (inactive)	> 100 µM (inactive)	74.3 µM (inactive)	> 100 µM (inactive)	> 100 µM (inactive)	39.3 µM (inactive)	> 100 µM (inactive)	86.9 µM (inactive)	> 100 µM (inactive)	> 100 µM (inactive)	> 100 µM (inactive)	> 100 µM (inactive)
